Experimental data from ChEMBL document CHEMBL6092166, “Design, synthesis and enzymatic inhibition evaluation of novel 4-hydroxy Pd-C-Ⅲ derivatives as α-glucosidase and PTP1B dual-target inhibitors” (Eur J Med Chem, 2024).
Activity calls are given as the source filed them. No cut-off for these calls is given here.

Columns and labels:
Alpha glucosidase [1] = biological target: T1, Alpha glucosidase (Homo sapiens, UniProt O43451+P10253+P14410+Q2M2H8); test: Inhibition of alpha-glucosidase (unknown origin) using p-NPG as substrate preincubated for 15 mins followed by substrate addition for 30 mins by absorbance based analysis; format: protein assay
Alpha glucosidase [2] = biological target: T1, Alpha glucosidase; test: Inhibition of alpha-glucosidase (unknown origin) using p-NPG as substrate incubated for 15 mins by spectrophotometric analysis; format: protein assay
[3] = biological target: T2, Tyrosine-protein phosphatase non-receptor type 1 (Homo sapiens, UniProt P18031); test: Inhibition of PTP1B (unknown origin) using pNPP as substrate preincubated for 10 mins followed by substrate addition for 20 mins by absorbance based analysis
T2 sequence (P18031 whole entry): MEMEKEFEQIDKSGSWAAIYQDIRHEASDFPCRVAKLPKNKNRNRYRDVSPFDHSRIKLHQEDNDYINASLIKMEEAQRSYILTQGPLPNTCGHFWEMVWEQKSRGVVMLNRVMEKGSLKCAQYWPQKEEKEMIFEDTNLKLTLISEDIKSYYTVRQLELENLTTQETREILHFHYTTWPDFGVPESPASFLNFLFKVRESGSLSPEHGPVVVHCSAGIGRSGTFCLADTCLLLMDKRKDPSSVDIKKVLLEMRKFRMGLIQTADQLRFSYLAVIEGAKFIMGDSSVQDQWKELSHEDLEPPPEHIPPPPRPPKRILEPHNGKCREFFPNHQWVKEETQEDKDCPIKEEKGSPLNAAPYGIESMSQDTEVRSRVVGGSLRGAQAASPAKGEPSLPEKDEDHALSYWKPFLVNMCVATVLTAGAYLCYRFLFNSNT

Alpha glucosidase [4] = biological target: T1, Alpha glucosidase; test: Binding affinity to alpha-glucosidase (unknown origin) assessed as Stem-Volmer quenching constant by fluorescence based analysis; format: protein assay
[5] = biological target: T3, Tyrosine-protein phosphatase non-receptor type 1 (Homo sapiens) (UniProt P18031); test: Inhibition of PTP1B (unknown origin) in human HepG2 cells assessed as downregulation of PTP1B protein level at 50 uM at 40 to 60 degreeC incubated for 6 hrs by Western blot based Cellular thermal shift assay; format: cell-based
T3 sequence (whole entry): T2 sequence (P18031 whole entry)

Alpha glucosidase [6] = biological target: T1, Alpha glucosidase; test: Binding affinity to alpha-glucosidase (unknown origin) using p-NPG as substrate assessed as enzyme-substrate complex inhibition constant at 0 to 20 uM incubated for 15 mins by Lineweaver-Burk double reciprocal plot analysis; format: protein assay; details: dose 0-20 µM
Alpha glucosidase [7] = biological target: T1, Alpha glucosidase; test: Inhibition of alpha-glucosidase (unknown origin) activity assessed as disruption of secondary structure by measuring alpha-helix content at 40 uM by Circular dichroism spectra analysis (reference value: 40.0%); format: protein assay; set-up: scale not given: the % may be the effect or the level left
Alpha glucosidase [8] = biological target: T1, Alpha glucosidase; test: Inhibition of alpha-glucosidase (unknown origin) activity assessed as disruption of secondary structure by measuring beta-sheet content at 10 uM by Circular dichroism spectra analysis (reference value: 13.9%); format: protein assay; set-up: scale not given: the % may be the effect or the level left
Alpha glucosidase [9] = biological target: T1, Alpha glucosidase; test: Inhibition of alpha-glucosidase (unknown origin) activity assessed as disruption of secondary structure by measuring beta-sheet content at 40 uM by Circular dichroism spectra analysis (reference value: 13.9%); format: protein assay; set-up: scale not given: the % may be the effect or the level left
Alpha glucosidase [10] = biological target: T1, Alpha glucosidase; test: Inhibition of alpha-glucosidase (unknown origin) activity assessed as disruption of secondary structure by measuring alpha-helix content at 50 uM by Circular dichroism spectra analysis (reference value: 40.0%); format: protein assay; set-up: scale not given: the % may be the effect or the level left
Alpha glucosidase [11] = biological target: T1, Alpha glucosidase; test: Inhibition of alpha-glucosidase (unknown origin) activity assessed as disruption of secondary structure by measuring alpha-helix content at 10 uM by Circular dichroism spectra analysis (reference value: 40.0%); format: protein assay; set-up: scale not given: the % may be the effect or the level left
Alpha glucosidase [12] = biological target: T1, Alpha glucosidase; test: Binding affinity to alpha-glucosidase (unknown origin) assessed as decreased fluorescence intensity by measuring peak 1 (lamda ex/lamda em: 315/375 nm) and peak 2 ((lamda ex/lamda em: 225/395 nm) by 3D fluorescence spectra analysis; format: protein assay
Mus musculus [13] = test: Reduction in blood glucose concentration in male Kunming mouse assessed as decrease in glucose AUC at 20 mg/kg preadministered for 40 mins and measured after 120 mins by sucrose loading test relative to control; format: functional, organism-based
Alpha glucosidase [14] = biological target: T1, Alpha glucosidase; test: Inhibition of alpha-glucosidase (unknown origin) activity assessed as disruption of secondary structure by measuring random coil content at 40 uM by Circular dichroism spectra analysis (reference value: 27.1%); format: protein assay; set-up: scale not given: the % may be the effect or the level left
Alpha glucosidase [15] = biological target: T1, Alpha glucosidase; test: Binding affinity to alpha-glucosidase (unknown origin) assessed as association constant by fluorescence based analysis; format: protein assay
Alpha glucosidase [16] = biological target: T1, Alpha glucosidase; test: Inhibition of alpha-glucosidase (unknown origin) activity assessed as disruption of secondary structure by measuring random coil content at 10 uM by Circular dichroism spectra analysis (reference value: 27.1%); format: protein assay; set-up: scale not given: the % may be the effect or the level left
Alpha glucosidase [17] = biological target: T1, Alpha glucosidase; test: Inhibition of alpha-glucosidase (unknown origin) activity assessed as disruption of secondary structure by measuring random coil content at 50 uM by Circular dichroism spectra analysis (reference value: 27.1%); format: protein assay; set-up: scale not given: the % may be the effect or the level left
[18] = Inhibition of alpha-amylase (unknown origin); set-up: species or system Homo sapiens
Alpha glucosidase [19] = biological target: T1, Alpha glucosidase; test: Binding affinity to alpha-glucosidase (unknown origin) assessed as fluorescence intensity at 12.5 uM by fluorescence based analysis (reference value: 313.09); format: protein assay
Alpha glucosidase [20] = biological target: T1, Alpha glucosidase; test: Inhibition of alpha-glucosidase (unknown origin) activity assessed as disruption of secondary structure by measuring beta-turn content at 30 uM by Circular dichroism spectra analysis (reference value: 15.8%); format: protein assay; set-up: scale not given: the % may be the effect or the level left
[21] = Cytotoxicity against human HEK293 cells assessed as cell survival at 250 uM incubated for 24 hrs by MTT assay; format: toxicity, cell-based; details: read-out: Survival
Alpha glucosidase [22] = biological target: T1, Alpha glucosidase; test: Mixed inhibition of alpha-glucosidase (unknown origin) using p-NPG as substrate assessed as increased in Km and decreased in Vmax at 0 to 20 uM incubated for 15 mins by Lineweaver-Burk double reciprocal plot analysis; format: protein assay; details: dose 0-20 µM
Alpha glucosidase [23] = biological target: T1, Alpha glucosidase; test: Binding affinity to alpha-glucosidase (unknown origin) using p-NPG as substrate assessed as free inhibition constant at 0 to 20 uM incubated for 15 mins by Lineweaver-Burk double reciprocal plot analysis; format: protein assay
Alpha glucosidase [24] = biological target: T1, Alpha glucosidase; test: Inhibition of alpha-glucosidase (unknown origin) activity assessed as disruption of secondary structure by measuring beta-turn content at 40 uM by Circular dichroism spectra analysis (reference value: 15.8%); format: protein assay; set-up: scale not given: the % may be the effect or the level left
Alpha glucosidase [25] = biological target: T1, Alpha glucosidase; test: Inhibition of alpha-glucosidase (unknown origin) activity assessed as disruption of secondary structure by measuring beta-turn content at 10 uM by Circular dichroism spectra analysis (reference value: 15.8%); format: protein assay; set-up: scale not given: the % may be the effect or the level left
Alpha glucosidase [26] = biological target: T1, Alpha glucosidase; test: Inhibition of alpha-glucosidase (unknown origin) activity assessed as disruption of secondary structure by measuring random coil content at 30 uM by Circular dichroism spectra analysis (reference value: 27.1%); format: protein assay; set-up: scale not given: the % may be the effect or the level left
Alpha glucosidase [27] = biological target: T1, Alpha glucosidase; test: Binding affinity to alpha-glucosidase (unknown origin) by fluorescence based analysis; format: protein assay
[28] = biological target: T2, Tyrosine-protein phosphatase non-receptor type 1; test: Inhibition of PTP1B (unknown origin)
Alpha glucosidase [29] = biological target: T1, Alpha glucosidase; test: Inhibition of alpha-glucosidase (unknown origin) activity assessed as disruption of secondary structure by measuring alpha-helix content at 30 uM by Circular dichroism spectra analysis (reference value: 40.0%); format: protein assay; set-up: scale not given: the % may be the effect or the level left
Alpha glucosidase [30] = biological target: T1, Alpha glucosidase; test: Binding affinity to alpha-glucosidase (unknown origin) assessed as quenching constant by fluorescence based analysis; format: protein assay
Alpha glucosidase [31] = biological target: T1, Alpha glucosidase; test: Inhibition of alpha-glucosidase (unknown origin) activity assessed as disruption of secondary structure by measuring beta-turn content at 50 uM by Circular dichroism spectra analysis (reference value: 15.8%); format: protein assay; set-up: scale not given: the % may be the effect or the level left
Alpha glucosidase [32] = biological target: T1, Alpha glucosidase; test: Mixed inhibition of alpha-glucosidase (unknown origin) using p-NPG as substrate at 0 to 20 uM incubated for 15 mins by Lineweaver-Burk double reciprocal plot analysis; format: protein assay; details: dose 0-20 µM
Alpha glucosidase [33] = biological target: T1, Alpha glucosidase; test: Inhibition of alpha-glucosidase (unknown origin) activity assessed as disruption of secondary structure by measuring beta-sheet content at 30 uM by Circular dichroism spectra analysis (reference value: 13.9%); format: protein assay; set-up: scale not given: the % may be the effect or the level left
Mus musculus [34] = test: Reduction in blood glucose concentration in male Kunming mouse at 20 mg/kg preadministered for 40 mins and measured after 120 mins by sucrose loading test; format: functional, organism-based
Alpha glucosidase [35] = biological target: T1, Alpha glucosidase; test: Binding affinity to alpha-glucosidase (unknown origin) assessed as collision quenching by fluorescence based analysis; format: protein assay
Alpha glucosidase [36] = biological target: T1, Alpha glucosidase; test: Inhibition of alpha-glucosidase (unknown origin) activity assessed as disruption of secondary structure by measuring beta-sheet content at 50 uM by Circular dichroism spectra analysis (reference value: 13.9%); format: protein assay; set-up: scale not given: the % may be the effect or the level left

## O=C(/C=C/c1cccc(Br)c1)OCCOc1ccc2ccc(=O)oc2c1
Alpha glucosidase [1]
  IC50: 132.7 µM

## O=C(/C=C/c1ccccc1)OCCOc1ccc2ccc(=O)oc2c1
Alpha glucosidase [1]
  IC50: 235.6 µM

## O=C(O)c1cc2ccc(=O)oc2cc1O
Alpha glucosidase [2]
  IC50: 172.1 µM
[3]
  IC50: 8 µM

## CC(C)=CC(=O)O[C@@H]1c2cc3ccc(=O)oc3cc2OC(C)(C)[C@H]1OC(=O)C=C(C)C
Alpha glucosidase [2]
  IC50: 79.1 µM
[3]
  IC50: 11.2 µM

## CO[C@@H]1c2cc3ccc(=O)oc3cc2OC(C)(C)[C@H]1OC(=O)C=C(C)C
Alpha glucosidase [2]
  IC50: 89.2 µM
[3]
  IC50: 6.6 µM

## CCCc1cc(=O)oc2cc(OCCOC(=O)/C=C/c3ccc(Cl)cc3Cl)ccc12
Alpha glucosidase [1]
  IC50: > 300 µM

## O=C(/C=C/c1ccc(Cl)cc1Cl)OCCCOc1ccc2ccc(=O)oc2c1
Alpha glucosidase [1]
  IC50: > 300 µM

## O=C(/C=C/c1ccc2ccccc2c1)OCCOc1ccc2ccc(=O)oc2c1
Alpha glucosidase [1]
  IC50: > 300 µM

## O=C(/C=C/c1ccc(Br)cc1)OCCOc1ccc2ccc(=O)oc2c1
Alpha glucosidase [1]
  IC50: 263.2 µM

## Cc1c(C)c2c(C)cc(OCCOC(=O)/C=C/c3ccc(Cl)cc3Cl)cc2oc1=O
Alpha glucosidase [4]
  KSV: 9.7 10^4L/mol
[5]
  inhibition: Active
Alpha glucosidase [6]
  Kis: 0.17 µM
Alpha glucosidase [7]
  Activity: 28.3%
Alpha glucosidase [8]
  Activity: 15.3%
Alpha glucosidase [9]
  Activity: 20.2%
Alpha glucosidase [10]
  Activity: 27.6%
Alpha glucosidase [11]
  Activity: 37.1%
Alpha glucosidase [12]
  inhibition: Active; Peak 1 Reflected The Absorption Peak Of Tyrosine Residues And Tryptophan Residues And Peak 2 Was Fluorescence Feature Of Polypeptide Backbone Structure
Mus musculus [13]
  Activity: Active
Alpha glucosidase [14]
  Activity: 35.4%
Alpha glucosidase [15]
  ka: 2.09 10^3L/mol
Alpha glucosidase [16]
  Activity: 29.1%
Alpha glucosidase [17]
  Activity: 36.3%
[18]
  IC50: 30.6 µM
Alpha glucosidase [19]
  Flu intensity: 144
Alpha glucosidase [20]
  Activity: 17.1%
[21]
  viability at 24 h, 250 µM: 81.8%
Alpha glucosidase [22]
  inhibition: Active
Alpha glucosidase [23]
  Ki: 0.25 µM
Alpha glucosidase [24]
  Activity: 17.8%
Alpha glucosidase [25]
  Activity: 16.3%
Alpha glucosidase [26]
  Activity: 32.7%
Alpha glucosidase [27]
  Activity: Active; Wavelength Of Maximum Emission Peak Red Shifted From 335 Nm To 340 Nm
[28]
  IC50: 47 µM
Alpha glucosidase [29]
  Activity: 32.2%
Alpha glucosidase [30]
  Kq: 9.7 10^12L/mol/s
Alpha glucosidase [31]
  Activity: 18%
Alpha glucosidase [32]
  inhibition: Active; Intersection In Second Quadrant Of Double Reciprocal Graph Observed; Compound Binds To Free Enzyme And Enzyme-Substrate Complex
Alpha glucosidase [33]
  Activity: 17.9%
Mus musculus [34]
  Activity: Active
Alpha glucosidase [35]
  K: 2 10^10L/mol/s
Alpha glucosidase [36]
  Activity: 20.9%
Alpha glucosidase [1]
  IC50: 66.3 µM

## O=C(/C=C/c1cccc(C(F)(F)F)c1)OCCOc1ccc2ccc(=O)oc2c1
Alpha glucosidase [1]
  IC50: > 300 µM

## O=C(/C=C/c1ccc(Cl)cc1Cl)OCCOc1ccc2ccc(=O)oc2c1
Alpha glucosidase [1]
  IC50: 116.5 µM

## O=C(OCCOc1ccc2ccc(=O)oc2c1)c1ccc(Cl)cc1Cl
Alpha glucosidase [1]
  IC50: 99 µM

## O=C(OCCCOc1ccc2ccc(=O)oc2c1)c1ccc(Cl)cc1Cl
Alpha glucosidase [1]
  IC50: > 300 µM

## Cc1cc(=O)oc2c(C)c(OCCOC(=O)/C=C/c3ccc(Cl)cc3Cl)ccc12
Alpha glucosidase [1]
  IC50: > 300 µM

## COc1ccc(/C=C/C(=O)OCCOc2ccc3ccc(=O)oc3c2)cc1Br
Alpha glucosidase [1]
  IC50: 286.2 µM
